Values joined by “and” are separate entries in the source; they are usually repeats but may differ in a detail not shown here. Equal values may be shown once. Where a name gives a salt, the structure may show the parent alone. Read-outs that look alike come from different tables or passages of the source. Where a SMILES comes first, the peptide text is derived from it.
Experiments:
[1] = pH of aqueous solution of solubilizing compound mixed with oleic acid; type: physicochemical; conditions: solubilizing compound in water with 0.833 mol equivalents of oleic acid
[2] = Estimation of the interaction between oleic acid and the test substance; type: physicochemical
[3] = Dynamic laser light scattering (DLS) of oleic acid micro-/nanoemulsions; type: physicochemical; conditions: for Mean Size by Intensity: DLS, emulsion with oleic acid; for Part: percentage of the peak in the sample
[4] = Estimation of solubility of the test substance in H2O; type: physicochemical
[5] = log P of the test substance
[6] = water (H2O), test substance mixed with oleic acid

Row | pH [1] | Interaction with Oleic Acid [2] | Mean Size by Intensity [3] [nm] | Part [3] [%] | Compound | other results
1 | 11.28 | X, E, S |  |  | 4-(4,6-Diamino-2,2-dimethyl-2H-[1,3,5]triazine-1-yl | Dissolved (H2O) [4]: (X)
2 | 9.20 |  |  |  | CN(C)C(=N)NC(=N)N.Cl [1,1-Dimethylbiguanide hydrochloride, reference compound] | 
3 |  |  |  |  | Cc1ccccc1NC(=N)Nc1ccccc1C [1,3-Di-o-tolyl-guanidine] | logP [5, 6]: 3.01
4 | 11.53 | X, E | 850 | 95.5 | Cc1ccccc1NC(=N)NC(=N)N [1-(o-Tolyl)biguanide] | Dissolved (H2O) [4]: (X); logP [5, 6]: 1.41
5 | 11.71 | X, E | 153 | 64.7 | N=C(N)NCCC(=O)O [3-Guanidinopropionic acid] | logP (physchem): -3.77
6 | 8.63 and 11.5 | X, E | 627 | 58.9 | O=C(O)CCCNC1=NCCN1 [4-(4,5-Dihydro-1H-imidazol-2-ylamino)-butyric acid] | logP [5, 6]: -1.6
7 | 11.19 | X, E |  |  | Cl.N=C(N)Nc1ccc(C(=O)O)cc1 [4-Guanidinobenzoic acid hydrochloride] | Dissolved (H2O) [4]: (X); logP [5, 6]: 0.604
8 | 10.41 | X, E |  |  | N=C(N)NCCCC(=O)O [4-Guanidinobutyric acid] | logP (physchem): -3.44
9 | 9.01 | (X), E |  |  | N=C(N)NCCCCCC(=O)O [6-Guanidinohexanoic acid] | Dissolved (H2O) [4]: (X); logP [5, 6]: -3.6
10 | 10.15 | X, E |  |  | N=C(N)N[C@@H](CCC(=O)O)C(=O)O [(S)-(−)-2-Guanidinoglutaric acid] | logP [5, 6]: -3.14
11 |  |  |  |  | C[C@H](NC(=O)[C@H](Cc1ccccc1)NC(=O)[C@@H](N)CCCNC(=N)N)C(=O)O [Arg-Phe-Ala acetate] (H-Arg-Phe-Ala-OH; N-terminus and C-terminus assumed) | logP: -3.6
12 |  |  |  |  | N=C(N)NCCC[C@H](N)C(=O)N[C@@H](Cc1ccccc1)C(=O)O [Arg-Phe] | logP [5]: -3.34
13 | 9.54 | X, E | 239 | 67.2 | CN/C(=N/CCSCc1nc[nH]c1C)NC#N [Cimetidine, 2-cyan-1-methyl-3-[2-(5-methylimidazol-4-ylmethylsulfanyl)-ethyl]-guanidine, reference compound] | Dissolved (H2O) [4]: ((X)); logP (physchem): 0.19
14 |  | (X), E |  |  | CN(CC(=O)O)C(=N)N [Creatine] | logP (physchem): -0.884
15 | 6.70 | X, E | 435 | 94.7 | C[C@@H](N[C@@H](CCCN=C(N)N)C(=O)O)C(=O)O [D-(+)-Octopine] | 
16 | 11.35 | X, S |  |  | COC(=O)[C@H](N)CCCNC(=N)N.Cl.Cl [D-arginine methyl ester dihydrochloride] | logP (physchem): -2.11
17 |  | X, S, (E) | 426 | 60.7 | CC(=O)NCC(=O)O.CC(=O)NCC(=O)O.N=C(N)c1ccc(N=NNc2ccc(C(=N)N)cc2)cc1 [Diminazene aceturate (basic), Diminazene aceturate, reference compound] | 

Row | pH [1] | Interaction with Oleic Acid [2] | Mean Size by Intensity [3] [nm] | Part [3] [%] | Compound | other results
18 |  |  |  |  | N=C(N)NCCC[C@H](NC(=O)CN)C(=O)O [Gly-Arg] (H-Gly-Arg-OH; N-terminus and C-terminus assumed) | logP: -5.06
19 |  |  |  |  | NCC(=O)N[C@@H](Cc1c[nH]cn1)C(=O)O [Gly-His] (H-Gly-His-OH; N-terminus and C-terminus assumed) | logP: -2.42
20 |  |  |  |  | NCC(=O)N[C@@H](Cc1ccccc1)C(=O)O [Gly-Phe, reference compound] (H-Gly-Phe-OH; N-terminus and C-terminus assumed) | logP [5]: -0.65
21 | 12.71 | X, E |  |  | N=C(N)N [Guanidinehydrochloride] | logP (physchem): -1.03
22 |  |  |  |  | N=C(N)NCCC[C@H](NC(=O)[C@@H](N)Cc1c[nH]cn1)C(=O)O [His-Arg] (H-His-Arg-OH; N-terminus and C-terminus assumed) | logP: -5.74
23 |  |  |  |  | c1c[nH]cn1 [Imidazole] | logP (physchem): -0.67
24 | 11.05 | X, E | 113 | 87.2 | Cl.N=C(N)NC[C@H](N)C(=O)O [L-2-Amino-3-guanidinopropionic acid hydrochloride] | logP (physchem): -3.81
25 | 9.12 | X, E | 349 | 94.1 | CC(=N)NCCCC[C@H](N)C(=O)O [L-NIL] | 
26 |  |  |  |  | NCCCC[C@H](N)C(=O)N[C@@H](CCCN=C(N)N)C(=O)O [Lys-Arq acetate] (H-Lys-Arg-OH) | logP: -5.06
27 | 9.51 | X, E, S | 325 | 93.9 | NC(=NCC[C@H](N)C(=O)O)NO [N-ω-Hydroxy-L-norarginine] | 
28 | 9.45 | X, E | 22.9 | 87.4 | CN(C)C(N)=NCCC[C@H](N)C(=O)O.Cl.Cl [NG,NG-Dimethylarginine dihydrochloride] | 
29 | 7.66 | X, E |  |  | [H]/N=C(\N/C(=N/[H])Nc1ccc(Cl)cc1)NC(C)C [Proguanil hydrochloride, 1-(4-chlorphenyl)-5-isopropylbi-guanide, reference compound] | Dissolved (H2O) [4]: (X); logP [5, 6]: 2.53
30 |  | X, S |  |  | NC(N)=NS(=O)(=O)c1ccc(N)cc1 [Sulfaguanidine, 4-amino-N-(diaminomethylen)benzensulfonamide, reference compound] | logP (physchem): -1.24
31 |  |  |  |  | C[C@@H](O)[C@H](N)C(=O)N[C@@H](CCCCN)C(=O)N1CCC[C@H]1C(=O)N[C@@H](CCCNC(=N)N)C(=O)O [Thr-Lys-Pro-Arq (Tuftsin)] (H-TKPR-OH; N-terminus and C-terminus assumed) | logP: -3.98
32 | 8.59 |  | 341 | 96.3 | NC(N)=O [Urea, reference compound] | Interaction with Oleic Acid ([2]; 60° C.): ((X))
33 | 9.93 | X, E | 721 | 74.6 | Argininosuccinic acid disodium salt hydrate | 
34 | 5.61 and 8.61 | X, S |  |  | polyhexamethylenbiguanide (PHMB) [Polyhexanide −5% (2300 bis 3100 MW), reference compound] | 

Row | Compound | pH [1] | Interaction with Oleic Acid [2] | Mean Size by Intensity [3] [nm] | Part [3] [%] | other results
35 | Cc1c[nH]cn1 | 8.90 | X, E/S | 224 | 96.7 | 
36 | CC(=O)NC1CCSC1=O (racemic) [DL-N-Acetylhomocysteine thiolactone, reference compound] | 10.70 |  |  |  | 
37 | N=C(N)NCCCCN.O=S(=O)(O)O [Agmatin sulfate] | 10.53 | X, S |  |  | logP (physchem): -1.81
38 | CC(=O)O.CC(=O)O.N=C(NCCCCCCNC(=N)NC(=N)Nc1ccc(Cl)cc1)NC(=N)Nc1ccc(Cl)cc1 [Chlorhexidine diacetate, 1,1′-hexamethylenbis[5-(4-chlorphenyl)-biguanide], reference compound] | 6.51 and 9.58 | X, S |  |  | Dissolved (H2O) [4]: (X)
39 | CN/C(=N\[N+](=O)[O-])NCc1cnc(Cl)s1 [Clothianidine, (E)-1-(2-chlor-1,3-thiazol-5-ylmethyl)-3-methyl-2-nitroguanidine] | 9.81 | X, E | 153 | 53.9 | Dissolved (H2O) [4]: (X); logP [5]: -2.03
40 | NC(N)=NCC(=O)O [Guanidine acetic acid] | 6.20 | (X), E/S |  |  | Dissolved (H2O) [4]: ((X)); log P [5]: −2.387
41 | NC(N)=NCCCC[C@H](N)C(=O)O [H-Homoarg-OH] | 8.66 | X, E | 107 | 68.5 | 
42 | NC(N)=NOCC[C@H](N)C(=O)O [L-Canavanine free base] | 8.67 and 9.04 | (X), S, E and X, E |  |  | 
43 | Nc1nc(N)nc(N)n1 [Melamine] | 8.25 | X, S |  |  | Dissolved (H2O) [4]: (X); logP (physchem): -0.961
44 | N=C(N)NC(N)=O.O.O=S(=O)(O)O [N-Guanylurea sulfate salt hydrate] |  | X, E |  |  | logP (physchem): 3.54
45 | NC(=NCCC[C@H](N)C(=O)O)N[N+](=O)[O-] [N-ω-Nitro-L-arginine] | 11.95 | X, E | 85.5 | 46.7 | 
46 | CC(=O)O.CNC(=N)NCCC[C@H](N)C(=O)O [N-ω-monomethyl-L-arginine acetate] | 8.49 | X, E |  |  | 
47 | N=C(N)NCCC[C@H](NC(=O)[C@@H](N)Cc1ccc(O)cc1)C(=O)O [Tyr-Arg (Kyotorphin acetate), L-tyrosyl-L-arginine] | 8.54 | X, E |  |  | logP (physchem): -4
48 | Aminophenylacetic acid [reference compound] | 9.23 | ((X)) |  |  | Dissolved (H2O) [4]: (X); log P [5]: 0.73
49 | Poly-L-arginine HCl [Poly-L-arginine HCl (70.000-150.000 MW)] |  | X, S |  |  | 
